Test results from the NIST ThermoML archive (doi:10.1021/je100220c).

Assay: excess molar enthalpy (molar enthalpy of mixing); xn = mol fraction of the nth substance listed
Conditions: Liquid, Flow calorimetry

CC(C)=O [acetone] + O=C=O
excess molar enthalpy [kJ/mol]
Conditions | 313.15 K | 323.15 K | 333.15 K
9000 kPa, x2 = 0.095 | -0.454 | – | –
9000 kPa, x2 = 0.102 | – | -0.728 | -0.753
9000 kPa, x2 = 0.158 | – | -1.1 | –
9000 kPa, x2 = 0.18 | -0.935 | – | -1.31
9000 kPa, x2 = 0.246 | -1.2 | -1.7 | -1.78
9000 kPa, x2 = 0.319 | – | -2.14 | –
9000 kPa, x2 = 0.337 | -1.49 | – | -2.39
9000 kPa, x2 = 0.424 | – | -2.69 | -2.94
9000 kPa, x2 = 0.432 | -1.86 | – | –
9000 kPa, x2 = 0.507 | -2.02 | -3.13 | -3.35
9000 kPa, x2 = 0.586 | -2.23 | -3.49 | –
9000 kPa, x2 = 0.625 | – | – | -4.01
9000 kPa, x2 = 0.662 | -2.29 | – | –
9000 kPa, x2 = 0.699 | – | -4 | -4.27
9000 kPa, x2 = 0.771 | -2.37 | -4.18 | -4.37
9000 kPa, x2 = 0.805 | – | -4.17 | –
9000 kPa, x2 = 0.807 | – | – | -4.2
9000 kPa, x2 = 0.84 | -2.23 | -4.05 | –
9000 kPa, x2 = 0.9 | -2.04 | – | –
9000 kPa, x2 = 0.906 | – | -3.43 | -2.03
9000 kPa, x2 = 0.938 | -1.74 | -2.61 | -1.21
9000 kPa, x2 = 0.969 | -1.2 | -1.13 | –
12000 kPa, x2 = 0.108 | -0.323 | -0.403 | –
12000 kPa, x2 = 0.189 | -0.574 | – | –
12000 kPa, x2 = 0.209 | – | -0.761 | –
12000 kPa, x2 = 0.258 | -0.732 | – | –
12000 kPa, x2 = 0.305 | – | -1.06 | –
12000 kPa, x2 = 0.332 | -0.922 | – | –
12000 kPa, x2 = 0.351 | – | -1.21 | –
12000 kPa, x2 = 0.395 | -1.05 | – | –
12000 kPa, x2 = 0.438 | – | -1.47 | –
12000 kPa, x2 = 0.464 | -1.17 | – | –
12000 kPa, x2 = 0.562 | -1.28 | -1.69 | –
12000 kPa, x2 = 0.646 | – | -1.77 | –
12000 kPa, x2 = 0.675 | -1.32 | – | –
12000 kPa, x2 = 0.747 | – | -1.8 | –
12000 kPa, x2 = 0.781 | -1.2 | – | –
12000 kPa, x2 = 0.801 | – | -1.72 | –
12000 kPa, x2 = 0.847 | -1.02 | – | –
12000 kPa, x2 = 0.879 | – | -1.39 | –
12000 kPa, x2 = 0.911 | -0.736 | – | –
12000 kPa, x2 = 0.941 | – | -0.933 | –
12000 kPa, x2 = 0.971 | -0.256 | -0.553 | –
15000 kPa, x2 = 0.111 | -0.277 | -0.308 | -0.371
15000 kPa, x2 = 0.194 | -0.457 | -0.531 | –
15000 kPa, x2 = 0.215 | – | – | -0.677
15000 kPa, x2 = 0.264 | -0.621 | -0.714 | –
15000 kPa, x2 = 0.312 | – | – | -0.941
15000 kPa, x2 = 0.34 | -0.76 | – | –
15000 kPa, x2 = 0.359 | – | -0.905 | –
15000 kPa, x2 = 0.404 | – | – | -1.19
15000 kPa, x2 = 0.456 | -0.906 | – | –
15000 kPa, x2 = 0.473 | – | -1.12 | –
15000 kPa, x2 = 0.489 | – | – | -1.36
15000 kPa, x2 = 0.53 | -1 | -1.19 | –
15000 kPa, x2 = 0.586 | -1.02 | – | –
15000 kPa, x2 = 0.609 | – | -1.24 | -1.52
15000 kPa, x2 = 0.647 | -1.02 | – | –
15000 kPa, x2 = 0.683 | – | -1.24 | -1.56
15000 kPa, x2 = 0.719 | -0.98 | – | –
15000 kPa, x2 = 0.753 | – | – | -1.5
15000 kPa, x2 = 0.787 | -0.887 | -1.12 | –
15000 kPa, x2 = 0.82 | – | – | -1.3
15000 kPa, x2 = 0.852 | -0.724 | -0.932 | –
15000 kPa, x2 = 0.883 | – | – | -1.04
15000 kPa, x2 = 0.913 | -0.499 | -0.651 | –
15000 kPa, x2 = 0.915 | – | – | -0.844
15000 kPa, x2 = 0.943 | -0.364 | -0.49 | -0.653
15000 kPa, x2 = 0.972 | -0.191 | -0.265 | -0.342
18000 kPa, x2 = 0.114 | -0.264 | -0.271 | –
18000 kPa, x2 = 0.198 | -0.417 | – | –
18000 kPa, x2 = 0.219 | – | -0.518 | –
18000 kPa, x2 = 0.269 | -0.541 | – | –
18000 kPa, x2 = 0.318 | – | -0.729 | –
18000 kPa, x2 = 0.346 | -0.672 | – | –
18000 kPa, x2 = 0.41 | -0.781 | -0.883 | –
18000 kPa, x2 = 0.479 | -0.846 | -0.974 | –
18000 kPa, x2 = 0.577 | -0.898 | -1.04 | –
18000 kPa, x2 = 0.652 | -0.919 | -1.02 | –
18000 kPa, x2 = 0.724 | -0.857 | -0.967 | –
18000 kPa, x2 = 0.791 | -0.722 | -0.857 | –
18000 kPa, x2 = 0.855 | -0.569 | -0.698 | –
18000 kPa, x2 = 0.915 | -0.383 | -0.453 | –
18000 kPa, x2 = 0.944 | – | -0.324 | –
18000 kPa, x2 = 0.956 | -0.218 | – | –
18000 kPa, x2 = 0.973 | – | -0.186 | –
